Measurements taken from publication PMC11354698, “Functional Characterization of an Odorant Receptor Expressed in Newly Hatched Larvae of Fall Armyworm Spodoptera frugiperda” (Insects, 2024).

Target: T1, SfruOR40/Orco (SfruOR40 co-expressed with SfruOrco) (Spodoptera frugiperda, UniProt A0A9R0D2T2)
T1 construct: gene LOC118267896; full-length ORF of SfruOR40 (395 residues); with Odorant receptor coreceptor
T1 sequence (A0A9R0D2T2 1-395): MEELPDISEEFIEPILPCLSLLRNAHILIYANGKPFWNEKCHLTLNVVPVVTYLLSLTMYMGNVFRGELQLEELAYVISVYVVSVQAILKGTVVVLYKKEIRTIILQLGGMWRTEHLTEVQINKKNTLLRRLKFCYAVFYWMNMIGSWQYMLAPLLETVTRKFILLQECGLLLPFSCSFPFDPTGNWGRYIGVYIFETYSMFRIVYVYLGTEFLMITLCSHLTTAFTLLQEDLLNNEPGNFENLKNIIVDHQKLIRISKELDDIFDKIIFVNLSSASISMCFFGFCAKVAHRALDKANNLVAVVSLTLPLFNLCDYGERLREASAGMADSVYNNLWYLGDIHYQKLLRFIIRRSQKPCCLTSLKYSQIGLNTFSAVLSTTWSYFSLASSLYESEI
T1 sequence (A0A9F1UC78 1-473 partner): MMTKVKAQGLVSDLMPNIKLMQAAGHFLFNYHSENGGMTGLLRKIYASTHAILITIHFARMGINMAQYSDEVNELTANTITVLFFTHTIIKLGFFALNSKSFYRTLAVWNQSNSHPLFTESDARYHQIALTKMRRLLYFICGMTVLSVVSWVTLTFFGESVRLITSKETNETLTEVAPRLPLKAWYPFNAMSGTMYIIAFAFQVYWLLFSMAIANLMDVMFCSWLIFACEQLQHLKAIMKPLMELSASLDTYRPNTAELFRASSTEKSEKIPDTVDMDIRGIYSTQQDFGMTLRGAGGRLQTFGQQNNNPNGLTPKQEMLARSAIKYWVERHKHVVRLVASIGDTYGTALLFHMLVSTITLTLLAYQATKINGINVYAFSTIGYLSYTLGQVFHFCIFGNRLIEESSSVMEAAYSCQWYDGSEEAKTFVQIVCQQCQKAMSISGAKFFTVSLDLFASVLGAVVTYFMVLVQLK
Experiment: two-electrode voltage clamp, Xenopus oocytes
Assay type: cell-based
Details: agonist, 10^-4 M odorant, -80 mV, Ringer's buffer pH 7.6, 0.1% DMSO, n = 7

| Structure (SMILES) | mean current amplitude at 10^-4 M [nA] |
| --- | --- |
| C=C1CC[C@H]2O[C@]2(C)CC[C@@H]2[C@@H]1CC2(C)C [(−)-trans-Caryophyllene oxide] | 90 |
| C/C1=C\CC/C(C)=C/CC(C)(C)/C=C/C1 [α-Humulene] | 206 |
| C=C1CC/C=C(\C)CC[C@@H]2[C@@H]1CC2(C)C [(−)-trans-Caryophyllene] | 111 |
